We go through 4 molecules from patent publication US6372278B1, “Sweetener composition” (Ajinomoto Co., Inc., priority 1998, dated 2002).

A short description of data set [1]: Dissolution time in water, elution tester (Japanese Pharmacopoeia paddle method). The class given is physicochemical. As to the method: (Dissolution rate of raw (original) powders each from NM C-type crystals and APM, and a mixture thereof) A predetermined amount of the sample was introduced into 900 ml water (20° C.) in a 1-L elution tester (the Japanese Pharmacopoeia, Paddle method, 100 rpm) and its dissolution time was measured (end point was visually confirmed).
Specifically, 1 g of sample taken from each mixture consisting of NM C-type crystal raw powder (average particle size of about 100 μm) and APM raw powder (average particle size of about 15 μm, IB-type bundled crystals) at the predetermined various ratios (APM content (% by weight)) shown in Table 1 below, was weighed, and then measured for its dissolution time. For comparison, 1.00 g, 0.90 g, 0.50 g, 0.10 g, 0.03 g, and 0.005 g samples were taken from said NM raw powder, and then their dissolution times were determined in the same manner as above. For the same purpose, 1.00 g, 0.97 g, 0.90 g, 0.50 g, and 0.10 g samples were taken from said APM raw powder, and then their dissolution times were determined in the same manner. […]

The conditions of data set [2]: in terms of weight ratio; cited from earlier work.
Setting [3] is: 0.10 g sample alone in 900 ml water, 20° C., paddle 100 rpm.
Where [4] appears, read: 0.50 g sample alone in 900 ml water, 20° C., paddle 100 rpm.
The mark [5] stands for this setting: 0.90 g sample alone in 900 ml water, 20° C., paddle 100 rpm.
[6] abbreviates: 1.00 g sample alone in 900 ml water, 20° C., paddle 100 rpm, end point visual.
[7] abbreviates: 0.03 g sample alone in 900 ml water, 20° C., paddle 100 rpm.
The mark [8] stands for this setting: 0.51 g of NM alone (same sweetness as 1 g mixture containing 50% APM).

Structures are written as SMILES. Peptide text beside a SMILES is read from it.

Turning to `COC(=O)[C@H](Cc1ccccc1)NC(=O)[C@@H](N)CC(=O)O` [APM, Aspartame] (H-Asp-Phe-OMe), the Dissolution time in data set [1] (setting [3]) was determined as 10 min; in data set [1] (setting [4]) it was 20 min; in data set [1] (setting [5]), 27 min; in data set [1] (0.97 g sample alone in 900 ml water, 20° C., paddle 100 rpm), 29 min; in data set [1] (setting [6]) it was 30 min. The sweetness strength entry in data set [2] is “about 200 times that of sucrose”.
Take `COC(=O)[C@H](Cc1ccccc1)NC(=O)[C@H](CC(=O)O)NCCC(C)(C)C` [NM A-type crystals, N-{N-(3,3-dimethylbutyl)-L-α-aspartyl}-L-phenylalanine 1-methyl ester]: the Dissolution time in data set [1] (setting [7]) is on record as 10 min; in data set [1] (setting [3]), 16 min; in data set [1] (setting [4]), 35 min; in data set [1] (setting [8]) it was “about 35 minutes”; in data set [1] (setting [5]), 40 min; in data set [1] (setting [6]), 42 min.
For the molecule `COC(=O)[C@H](Cc1ccccc1)NC(=O)[C@H](CC(=O)O)NCCC(C)(C)C` [NM C-type crystals, N-{N-(3,3-dimethylbutyl)-L-α-aspartyl}-L-phenylalanine 1-methyl ester], the Dissolution time in data set [1] (0.005 g sample alone in 900 ml water, 20° C., paddle 100 rpm) was 4 min; in data set [1] (setting [7]), 30 min; in data set [1] (setting [3]) it was 40 min; in data set [1] (0.5 g alone, 900 ml water, 20° C.) it was 55 min; in data set [1] (setting [4]), 55 min; in data set [1] (setting [8]), “about 55 minutes”. Also, the Dissolution time in data set [1] (setting [5]) worked out at 60 min; in data set [1] (setting [6]), 62 min.
As for `COC(=O)[C@H](Cc1ccccc1)NC(=O)[C@H](CC(=O)O)NCCC(C)(C)C` [NM], in data set [2], the sweetness strength entry is reported as “about 10,000 times that of sucrose”.
